From PubChem BioAssay (NCI)
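A five-concentration, 48-hour dose response in 96-well plates underlies each endpoint, interpolated linearly between surrounding concentrations. TGI denotes the concentration required for complete inhibition of growth.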

Columns and labels:
Assay in all cases: NCI anticancer screen, dose series, 48 h
OVCAR-5 ovarian = system: OVCAR-5 ovarian
MALME-3M melanoma = system: MALME-3M melanoma
UACC-62 melanoma = system: UACC-62 melanoma
DU-145 prostate = system: DU-145 prostate
HS 578T breast = system: HS 578T breast
HL-60(TB) leukemia = system: HL-60(TB) leukemia
LOX IMVI melanoma = system: LOX IMVI melanoma
CCRF-CEM leukemia = system: CCRF-CEM leukemia
SF-539 CNS = system: SF-539 CNS
MCF7 breast = system: MCF7 breast
MDA-MB-231 breast = system: MDA-MB-231 breast
NCI-H226 lung = system: NCI-H226 lung
SN12C renal = system: SN12C renal
MOLT-4 leukemia = system: MOLT-4 leukemia
UACC-257 melanoma = system: UACC-257 melanoma

Row | Structure (SMILES) | TGI (OVCAR-5 ovarian) [µM] | TGI (MALME-3M melanoma) [µM] | TGI (UACC-62 melanoma) [µM] | TGI (DU-145 prostate) [µM] | TGI (HS 578T breast) [µM] | TGI (HL-60(TB) leukemia) [µM] | TGI (LOX IMVI melanoma) [µM] | TGI (CCRF-CEM leukemia) [µM] | TGI (SF-539 CNS) [µM] | TGI (MCF7 breast) [µM] | TGI (MDA-MB-231 breast) [µM] | TGI (NCI-H226 lung) [µM] | TGI (SN12C renal) [µM] | TGI (MOLT-4 leukemia) [µM] | TGI (UACC-257 melanoma) [µM]
1 | CN(C)CCSC(=Nc1ccccc1)N1C=COC=C1 | > 100 | > 81.8 | 30.9 | > 100 | > 100 | > 100 | 31.8 | > 100 | > 89 | 33.9 | 41.1 | > 75.6 | 64.6 | > 100 | 33.8
2 | OC(c1ccc(F)cc1)C(F)(F)c1nc(-c2ccccc2)no1 (stereo not given) | 35.6 | 35 | 37.7 | 50.4 | 63.9 | 48.7 | > 100 | 52.2 |  | 50.3 | 42.8 |  | 39.8 |  | 43.4
3 | C[C@H](CCC(=O)O[C@@H]1CC[C@@]2(C)C(CC[C@H]3[C@@H]4CC[C@H]([C@H](C)CCc5nc6ccccc6[nH]5)[C@@]4(C)CC[C@@H]32)C1)[C@H]1CC[C@H]2[C@@H]3CCC4C[C@H](O)CC[C@]4(C)[C@H]3CC[C@]12C (stereo not given in full) | > 100 |  | > 100 | > 100 | > 100 | > 100 | > 100 | > 100 | > 100 | > 100 | > 100 | > 100 | > 100 | > 100 | > 100
4 | CN(C)C(=S)N/N=C\C(=N/NC(=S)N(C)C)c1ccccc1 | > 100 | > 57.5 | > 100 | > 22.7 | > 29.9 |  | > 100 |  | > 100 | > 38.8 | > 100 | > 30.6 | > 100 | > 100 | > 100
5 | Cn1c(=O)nc2n(CCO)ccnc-2c1=O | > 100 | > 100 | > 100 | > 100 | > 100 |  | > 100 | > 100 | > 100 | > 100 | > 100 | > 100 | > 100 | > 100 | > 100
6 | Cc1nc2c(=O)[nH]c3ccccc3c2o1 | > 100 | > 100 | > 100 | > 100 | > 100 | > 100 | > 100 | > 100 | > 100 | > 100 | > 100 | > 100 | > 100 |  | > 100
7 | CC(=O)Nc1ccc2c3c(cc(O)c2c1)N(C(=O)CCCC(=O)Nc1ccc2c4c(cc(O)c2c1)N(C(=O)OC(C)(C)C)CC4CCl)CC3CCl (stereo not given) | > 15.4 | 2.75 | 2.31 | > 50 | > 12.1 | 1.71 | > 12.4 | 0.599 | > 50 | > 16.3 | 3.74 |  | > 13.2 | 0.912 | 3.34
8 | CCOC(=O)C1=C(OS(=O)(=O)C(F)(F)F)CCCC1 | > 100 | > 100 | > 100 | > 100 | > 100 | > 100 | > 100 | > 100 | > 100 | > 100 | > 100 | > 100 |  | > 100 | > 100
